Values of other authors, collected in PMC9045302, “The Characterization of an Efficient Phenylpyruvate Decarboxylase KDC4427, Involved in 2-Phenylethanol and IAA Production from Bacterial Enterobacter sp. CGMCC 5087” (Microbiology Spectrum, 2022).

Assays:
KDC4427 [1] = molecular target: T1, KDC4427 (Enterobacter sp. CGMCC 5087, UniProt Z9M8L3KFT6); experiment: coupled assay with yeast alcohol dehydrogenase, NADH at […] nm; assay type: biochemical; conditions: pH 7.0, 37°C, 0.2 mM ThDP, 0.1 mM MgSO4; footnote: authors' own data cited from their unpublished paper
T1 construct: tetramer stated from homology model; ThDP/Mg2+ dependent

KDC4427 [2] = molecular target: T1, KDC4427; experiment: as above; assay type: biochemical; conditions: pH 7.0, 37°C, 0.2 mM ThDP, 0.1 mM MgSO4; footnote: authors' own data cited from their unpublished paper; remark: listed apart in the source

| SMILES | Km (KDC4427 [1]) [mM] | Km (KDC4427 [2]) [mM] |
| --- | --- | --- |
| O=C(O)C(=O)Cc1c[nH]c2ccccc12 [Indole-3-pyruvic acid] | 0.015 ± 0.002 | – |
| O=C(O)C(=O)Cc1ccccc1 [Phenylpyruvic acid] | – | 0.6 ± 0.02 |
